We go through two molecules from PubChem BioAssay AID1845194 (Molecular Pharmacology Branch, DTP, NCI, 2023).

One may read the IC50 as the midpoint of a concentration-inhibition curve. What is called viability, T/C is the result in the treated group divided by that in the control group, in per cent.

Where “and” joins values, the source holds several entries; their conditions need not be identical. Equal entries are not always repeated.

In this experiment the test system is 287954-098-R-J1 tumor spheroid viability. The experiment can be described thus: Anticancer human tumor 287954-098-R-J1 patient-derived Ewing sarcoma cell line growth inhibition. The settings on record: spheroids with HUVEC and MSC; for viability, T/C: stronger effect = lower value. The text has this: Multicellular complex tumor spheroid response to DNA repair inhibitors in combination with DNA-damaging drugs
This study explores the anticancer activities of DNA-damaging drugs and inhibitors of DNA damage repair, both as single agents and in combinations. Complex tumor spheroids comprised of malignant cells, endothelial cells and mesenchymal stem cells served as an in vitro model for human solid tumors. This model system incorporates physiologically relevant features and patient-derived or established malignant cell lines with clinically relevant genetic alterations from many tumor types. Twenty-six patient-derived or established malignant cell lines were evaluated representing sarcoma, melanoma, small cell lung cancer (SCLC), non-small cell lung cancer (NSCLC), as well as bladder, ovarian and pancreatic cancers. The concentration ranges selected for each drug and investigational agent were based upon clinically achievable concentrations if the clinical Cmax of the agent was known.
Compounds. The drugs and compounds olaparib (NSC753686), talazoparib (NSC767125), berzosertib (NSC777718), elimusertib (NSC800525), nedisertib (NSC802822), VX-984 (NSC792969), AZD-1390 (NSC803789), temozolomide (NSC362856), topotecan (NSC609699), trabectedin (NSC813783), staurosporine (NSC755774), and gemcitabine (NSC613327) were obtained from the National Cancer Institute (NCI) Developmental Therapeutics Program Chemical Repository. The FDA-approved anticancer drug set is available from the Developmental Therapeutics Program at https://dtp.cancer.gov/organization/dscb/obtaining/available_plates.htm. […] The stock solutions were prepared in dimethyl sulfoxide (DMSO, Sigma-Aldrich, St. Louis, MO, cat. D2650) at 400-fold the tested concentration and stored at -70 degrees C. Prior to their use, the stock solutions were diluted in fresh medium and the final DMSO concentration in the assay was 0.25% (v/v). All drugs and investigational agents were tested over a range starting from a high concentration at or near the clinical Cmax and decreasing in half-log increments. If the clinical Cmax for an agent had not been determined, the highest concentration tested was 10 microM.
Cell Lines. The patient-derived cancer cell (PDC) lines: 156681-154-R-J1-PDC, 283228-195-R-J1-PDC, 287954-098-R-J1-PDC, 292921-168-R-J2-PDC, 349418-098-R-PDC, 425362-245-T-J1-PDC, 556581-035-R-J1-PDC, and BL0293-F563-PDC were received from the NCI Patient-Derived Models Repository (PDMR, https://pdmr.cancer.gov). The established cell lines HS-SY-2 (RRID:CVCL_8719), MPNST, and SYO-1 (RRID:CVCL_7146) were obtained from the Sloan Kettering Institute. The alveolar soft parts sarcoma cell line ASPS-1 (RRID:CVCL_S738) was established at the NCI and grown from internal seed stocks. The following established cell lines were purchased from the American Type Culture Collection (ATCC, Manassas, VA): G-401 (ATCC, cat. CRL-1441, RRID:CVCL_0270), SW982 (ATCC, cat. HTB-93, RRID:CVCL_1734), VA-ES-BJ (ATCC, cat. CRL-2138, RRID:CVCL_1785), NCI-H719 (ATCC, cat. CRL-5837, RRID:CVCL_1582), NCI-H196 (ATCC, cat. CRL-5823, RRID:CVCL_1509), NCI-H841 (ATCC, cat. CRL-5845, RRID:CVCL_1595), NCI-H1618 (ATCC, cat. CRL-5879, RRID:CVCL_1480), NCI-H1876 (ATCC, cat. CRL-5902, RRID:CVCL_1503), DMS 114 (ATCC, cat. CRL-2066; RRID:CVCL_1174), NCI-H211 (ATCC, cat. CRL-5824; RRID:CVCL_1529), and SW 1271 (ATCC, cat. CRL-2177, RRID:CVCL_1716). The small cell lung cancer cell line COR-L88 was purchased from Sigma-Aldrich (cat. 92031917-1VL, RRID:CVCL_1141). The non-small cell lung cancer cell lines NCI-H226 (RRID:CVCL_1544) and NCI-H322M (RRID:CVCL_1557) were established at the NCI and grown from internal seed stocks. Pooled donor human umbilical vein endothelial cells (HUVEC, Lonza, cat. CC-2519) and human mesenchymal stem cells (hMSC, Lonza, cat. PT-2501) were purchased from Lonza (Walkersville, MD).
Cell Culture. All cells were maintained in an incubator at 37 degrees C and 5% CO2 with 95% humidity. […]
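Also: spheroids exposed to compound for 7 days before viability readout.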
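For viability, T/C in this document: luminescent signal taken as surrogate of viable cell content; 100% = DMSO vehicle control viability and lower means growth inhibition.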

Take `Cc1sc2c(c1C)C(c1ccc(Cl)cc1)=NC(CC(=O)Nc1ccc(O)cc1)c1nnc(C)n1-2` (configuration not stated) + CC[C@@]1(O)C(=O)OCc2c1cc1n(c2=O)Cc2cc3c(CN(C)C)c(O)ccc3nc2-1: the concentration for half-maximal inhibition (IC50) by setting is: (curve of first compound, second compound 0.003 µM) 555 nM; (curve of first compound, second compound 0.00949 µM) 185 nM; (curve of first compound, second compound 0.03 µM) < 9.49 nM; (curve of first compound, second compound 0.0949 µM) < 9.49 nM; (curve of first compound, second compound 0.3 µM) < 9.49 nM. Besides, the viability, T/C is 110% (second compound 0.003 µM, first compound 0.00949 µM); 117% (second compound 0.003 µM, first compound 0.03 µM); 123% (second compound 0.003 µM, first compound 0.0949 µM); 90.1% (second compound 0.003 µM, first compound 0.3 µM); 15.2% (second compound 0.003 µM, first compound 0.949 µM); 1.91% (second compound 0.003 µM, first compound 3 µM). For the same molecule, the viability, T/C is, setting by setting: (second compound 0.00949 µM, first compound 0.00949 µM) 117%; (second compound 0.00949 µM, first compound 0.03 µM) 112%; (second compound 0.00949 µM, first compound 0.0949 µM) 106%; (second compound 0.00949 µM, first compound 0.3 µM) 9.5%; (second compound 0.00949 µM, first compound 0.949 µM) 1.8%; (second compound 0.00949 µM, first compound 3 µM) 1.47%. Also, the viability, T/C is 2.84% (second compound 0.03 µM, first compound 0.00949 µM); 3% (second compound 0.03 µM, first compound 0.03 µM); 1.99% (second compound 0.03 µM, first compound 0.0949 µM); 1.63% (second compound 0.03 µM, first compound 0.3 µM); 1.17% (second compound 0.03 µM, first compound 0.949 µM); 1.04% (second compound 0.03 µM, first compound 3 µM). The viability, T/C is, setting by setting: (second compound 0.0949 µM, first compound 0.00949 µM) 1.98%; (second compound 0.0949 µM, first compound 0.03 µM) 2.06%; (second compound 0.0949 µM, first compound 0.0949 µM) 1.8%; (second compound 0.0949 µM, first compound 0.3 µM) 1.32%; (second compound 0.0949 µM, first compound 0.949 µM) 1.09%; (second compound 0.0949 µM, first compound 3 µM) 1.22%. Besides, the viability, T/C is, setting by setting: (second compound 0.3 µM, first compound 0.00949 µM) 1.94%; (second compound 0.3 µM, first compound 0.03 µM) 2.02%; (second compound 0.3 µM, first compound 0.0949 µM) 1.68%; (second compound 0.3 µM, first compound 0.3 µM) 1.25%; (second compound 0.3 µM, first compound 0.949 µM) 1.2%; (second compound 0.3 µM, first compound 3 µM) 1%.
Turning to `Cn1ncnc1[C@H]1c2n[nH]c(=O)c3cc(F)cc(c23)N[C@@H]1c1ccc(F)cc1`, the viability, T/C reads like this: (compound 0.00949 µM) 112% and 99.5% and 92.6%; (compound 0.03 µM) 101% and 104% and 107%; (compound 0.0949 µM) 98.5% and 97% and 105%; (compound 0.3 µM) 97.8% and 95.6% and 94.2%; (compound 0.949 µM) 2.74% and 25.4% and 16.7%; (compound 3 µM) 2.53% and 1.95% and 1.33%. Where the note is “curve of compound”, the IC50 was 536 nM and 633 nM and 579 nM.
